The values that follow come from PubChem BioAssay AID720590 (Broad Institute, 2013).

Activity calls are given as the source filed them. The rule behind the calls is not given here.

The first assay addresses Mycobacterium tuberculosis BioA (adenosylmethionine-8-amino-7-oxononanoate aminotransferase). Put plainly: inhibition of M. tuberculosis BioA aminotransferase – biochemical, plate reader, dry powder samples, dose response (AID 720590). To be noted: M. tuberculosis BioA enzyme assay.
Regarding `CC(=O)c1ccc(N2CCN(C(=O)c3ccc4ncsc4c3)CC2)cc1`, the half-maximal activity concentration (AC50) was 246 nM.
Turning to `Cc1ccc(-c2cc(C(F)(F)F)n3nc(C(=O)Nc4cccnc4)cc3n2)cc1`, the AC50 is below 80 nM.
`CC(=O)c1ccc(N2CCN(C(=O)c3cccc(Cl)c3)CC2)cc1`: the AC50 was 95.5 nM.
For the molecule `CCN(CC)c1ccc2cc(C(=O)c3cccs3)c(=O)oc2c1`, the AC50 was below 80 nM.
Still for that read-out and setting: next, `CC(=O)c1ccc(N2CCN(C(=O)c3ccc4c(c3)OCCO4)CC2)cc1`: 2830 nM; `CC(=O)c1ccc(N2CCN(C(=O)c3ccc4c(c3)OCO4)CC2)cc1`: below 80 nM; `Cc1ccc(/C=C(\CCC(=O)O)c2nc3ccccc3s2)cc1[N+](=O)[O-]`: below 80 nM.
As to `CC(=O)c1ccc(N2CCN(Cc3ccc4c(c3)OCO4)CC2)cc1`, the AC50 was 133 nM.
Still for that read-out and setting: the value for `CC(=O)c1ccc(N2CCN(C(=O)c3ccc(C)cc3)CC2)cc1` was 746 nM.
Regarding `O=C(Nc1cccnc1)c1cc2nc(-c3cccs3)cc(C(F)(F)F)n2n1`, the AC50 was 87.1 nM.
`CCOC(=O)N1CCN(C(=O)Nc2ccc3snnc3c2)CC1`: the AC50 is 424 nM.
The same measure, in the same setting: the value for `CCc1ccc(C(=O)N2CCN(Cc3ccc4c(c3)OCO4)CC2)cc1` was > 20000 nM (inactive).
On to `COc1ccc(C(=O)N2CCN(c3ccc(C(C)=O)cc3)CC2)cc1`, for which the AC50 was 1280 nM.
As to `CCc1ccc(N2CCN(C(=O)c3ccc4c(c3)OCO4)CC2)cc1`, the AC50 is > 20000 nM (inactive).
Consider `Cc1ccc(/C=C(\CCCC(=O)O)c2nc3ccccc3s2)cc1[N+](=O)[O-]`, for which the concentration at half-maximal activity (AC50) is 953 nM.
For the molecule `COc1cc(/C=C/C(=O)Nc2cccnc2)cc(OC)c1OC`, the AC50 was 107 nM.
For `O=C(O)CC/C(=C\c1ccccc1[N+](=O)[O-])c1nc2ccccc2s1`, the AC50 was > 20000 nM (inactive).
Turning to `CC(=O)c1ccc(N2CCN(C(=O)c3ccc(Cl)cc3)CC2)cc1`, the AC50 is 751 nM.
On the same count and under the same terms, next, `COc1ccc(-c2cc(C(F)(F)F)n3nc(C(=O)Nc4cccnc4)cc3n2)cc1`: below 80 nM.
Take `CC(C)(C)c1ccc(C(=O)N2CCN(c3ccc4c(c3)OCO4)CC2)cc1`: the AC50 is > 20000 nM (inactive).
As to `O=C(Nc1ccc2snnc2c1)N1CCOCC1`, the concentration at half-maximal activity (AC50) was 896 nM.
`CC(=O)c1ccc(N2CCN(C(=O)c3ccc(F)cc3)CC2)cc1`: the AC50 is 300 nM.
As to `O=C(c1ccc2c(c1)OCO2)N1CCN(Cc2ccccc2)CC1`, the AC50 is > 20000 nM (inactive).
In the case of `CC(=O)c1ccc(N2CCN(C(=O)c3ccc(Br)cc3)CC2)c(F)c1`, the AC50 was below 80 nM.
Take `O=C(Nc1cccc(F)c1)N1CCN(c2ccccc2)CC1`: the concentration at half-maximal activity (AC50) is 4330 nM.
`CC(=O)c1ccc(N2CCN(C(=O)c3cccc(F)c3)CC2)cc1`: the AC50 is 731 nM.
Take `COc1cccc(C(=O)N2CCN(c3ccc(C(C)=O)cc3)CC2)c1`: the AC50 was 602 nM.
As to `Cc1cc(C)n2nc(C(=O)Nc3cccnc3)nc2n1`, the half-maximal activity concentration (AC50) is 673 nM.
`COc1cccc(NC(=O)CCC2CCN(C(=O)c3ccc(C(C)=O)s3)CC2)c1`: the AC50 is 225 nM.
As for `Cc1ccccc1/C=C(\CCC(=O)O)c1nc2ccccc2s1`, the AC50 is 7620 nM.
For `COc1cccc(NC(=O)N2CCN(c3ccccc3)CC2)c1`, the AC50 was > 20000 nM (inactive).
Take `O=C(Nc1ccc2snnc2c1)N1CCN(c2ccccc2)CC1`: the concentration at half-maximal activity (AC50) is below 80 nM.
In the case of `O=C(Nc1ccc2snnc2c1)N1CCCCC1`, the AC50 is 1460 nM.
Consider `O=C(Nc1ccc(Cl)c(-c2nc3ccccc3[nH]2)c1)c1cccnc1`, for which the AC50 was 181 nM.
`CC(=O)c1ccc(N2CCN(C(=O)c3cccnc3)CC2)cc1`: the AC50 was 2040 nM.
The same measure, in the same setting: the value for `O=C(O)CC/C(=C\c1ccc([N+](=O)[O-])cc1)c1nc2ccccc2s1` was 988 nM; that for `Cc1cc(C)n2nc(C(=O)Nc3cccnc3)cc2n1` was 150 nM.
Still for that read-out and setting: the value for `COC(=O)c1c(C(=O)OC)c(-c2cccc(F)c2)n2c1CS(=O)C2` (stereo unspecified) was 115 nM.
`CC(=O)c1ccc(N2CCN(C(=O)c3ccccc3)CC2)cc1`: the AC50 was 161 nM.
Take `COc1ccc(N2CCN(C(=O)c3ccc4c(c3)OCO4)CC2)cc1`: the AC50 is 5320 nM.
As for `O=C(Nc1ccc(F)cc1)N1CCN(c2ccccc2)CC1`, the AC50 is 6630 nM.
Take `O=C(COc1ccc2ccc(=O)oc2c1)N1CCN(c2ccc(F)cc2)CC1`: the AC50 was 162 nM.
In the case of `O=C(Nc1cccnc1)c1cnn2c(C(F)F)cc(C3CC3)nc12`, the AC50 is 252 nM.
Consider `O=C(c1ccc2c(c1)OCO2)N1CCN(c2ccc(Cl)cc2)CC1`, for which the AC50 was 4320 nM.
As for `Cc1ccc(/C=C(\CCC(=O)O)c2nc3ccccc3s2)cc1`, the AC50 was 7240 nM.
With `O=C(c1ccc2c(c1)OCO2)N1CCN(c2ccccc2)CC1`, the AC50 was > 20000 nM (inactive).

The assay is the same for the next values; noted with them: M. tuberculosis BioA enzyme assay, at 10 µM (top of the series).
Take `O=C(Nc1ccc2[nH]ccc2c1)N1CCN(c2ccccc2)CC1`: the “activity change, negative = inhibition” value was “inactive”.
Same read-out and setting: the value for `O=C(c1ccc2c(c1)OCO2)N1CCN(c2ccc(F)cc2)CC1` was “inactive”; that for `COc1ccc(NC(=O)N2CCN(c3ccccc3)CC2)cc1` was “inactive”; that for `O=C(Nc1cccnc1)c1cnn2c(C(F)(F)F)cc(-c3ccccc3)nc12` was “inactive”.
For `Cc1nc2ccc(NC(=O)N3CCN(c4ccccc4)CC3)cc2s1`, the “activity change, negative = inhibition” value is “inactive”.
On the same count and under the same terms, next, `Cc1nc2cc(NC(=O)N3CCN(c4ccccc4)CC3)ccc2o1`: “inactive”.
Consider `Cc1ccc(NC(=O)N2CCN(c3ccccc3)CC2)cc1`, for which the “activity change, negative = inhibition” value is “inactive”.
Consider `O=C(Nc1ccc(Cl)cc1)c1cc2nc(C3CC3)cc(C(F)(F)F)n2n1`, for which the “activity change, negative = inhibition” value is “inactive”.
Regarding `O=C(Nc1ccccc1)N1CCN(c2ccccc2)CC1`, the “activity change, negative = inhibition” value is “inactive”.
Take `O=C(Nc1ccncc1)c1cc2nc(C3CC3)cc(C(F)F)n2n1`: the “activity change, negative = inhibition” value is “inactive”.
